{"source": "paper PMC9235892", "about": "(Virulence, 2022)", "key": {"[1]": {"test_system": "SARS-CoV-2", "assay": "microbe, parasite or virus in culture", "type": "cell-based", "settings": "for EC50: Severe acute respiratory syndrome coronavirus 2, 60 h, read-out: half maximal effective concentration (EC50), 50% CPE inhibition"}, "[2]": {"test_system": "SARS-CoV-2", "type": "cell-based"}, "[3]": {"test_system": "Vero CCL81 cells"}, "[4]": {"test_system": "SARS-CoV-2", "type": "cell-based", "remark": "listed apart in the source"}, "[5]": {"test_system": "SARS-CoV-2", "type": "cell-based", "remark": "listed apart in the source"}, "[6]": {"test_system": "intracellular cholesterol traffic", "type": "cell-based, African green monkeys"}, "[7]": {"test_system": "HEK293T", "assay": "MTT assay in HEK293T", "type": "cell-based, human", "settings": "10 µM and 32 µM"}, "[8]": {"test_system": "SARS-CoV-2", "type": "cell-based", "remark": "listed apart in the source"}, "[9]": {"test_system": "Calu-3", "assay": "MTT assay in Calu-3", "type": "cell-based, human", "settings": "Calu-3, 10 µM and 32 µM"}, "[10]": {"assay": "Pharmacokinetics in mice", "type": "in vivo, CD1 mice", "procedure": "In vivo pharmacokinetics assessment of LNB167 was performed at the Center of Innovation and Preclinical Studies (CIEnP, Brazil) under contract. LNB167 was tested in adult male CD1 mice (n = 5) bred under Specific Pathogen Free conditions at doses of 60 mg/kg (p.o.) or 6 mg/kg (I.V.). Results were reported according to ARRIVE (Animal Research Reporting In Vivo Experiments) [[22–24]]. The pharmacokinetics parameters were determined using the software Phoenix® WinNonlin® (version 7.0)."}, "[11]": {"test_system": "SARS-CoV-2", "type": "cell-based", "remark": "listed apart in the source"}, "[12]": {"assay": "Potential toxicity of LNB167 in mice", "type": "in vivo, FVB male mice", "settings": "oral gavage", "procedure": "Adult FVB male mice bred and maintained at the Animal Facility of LOM at LNBio/CNPEM were weighed and divided into three groups (n = 5): vehicle (5% ethanol, 45% PEG400, 5% TWEEN®80, 45% saline), LNB167 60 mg/kg, and LNB167 300 mg/kg. Mice received one dose daily for 6 days by oral gavage. Animals were weighed and monitored daily for signs of potential compound toxicity including loss of movement, ruffled fur, ear position, eye shape, and death."}, "[13]": {"test_system": "Caco-2", "assay": "MTT assay in Caco-2", "type": "cell-based, human", "settings": "Caco-2, 10 µM and 32 µM"}, "[14]": {"test_system": "HuH7.5", "assay": "MTT assay in HuH7.5", "type": "cell-based, human", "settings": "HuH7.5, 10 µM and 32 µM"}, "[15]": {"test_system": "HEK293T cells", "type": "cell-based, human"}, "[16]": {"test_system": "SARS-CoV-2 B.1", "type": "cell-based"}, "[17]": {"test_system": "SARS-CoV-2", "settings": "in vivo"}, "[18]": {"test_system": "SARS-CoV-2", "type": "cell-based", "remark": "listed apart in the source"}, "[19]": {"test_system": "SARS-CoV-2"}}, "note": "Values joined by “and” are separate entries in the source; they are usually repeats but may differ in a detail not shown here. Equal entries are not always repeated. Where two headings read alike, the source gives them in different places."}
{"compound": "C[C@]12CC[C@H](O)CC1CCC1C2CC[C@]2(C)C(=O)[C@H](Br)CC12", "note": "(some centres unmarked) [16a-bromoepiandrosterone, reference compound]", "values": [{"measurement": "cytoprotective activity against SARS-CoV-2", "setting": "[1]", "value": "did not display cytoprotective activity"}]}
{"compound": "CCN(CC)CCCC(C)Nc1ccnc2cc(Cl)ccc12", "note": "(centres unmarked) [Chloroquine, reference compound]", "values": [{"measurement": "EC50", "setting": "[1]", "value": 5.9, "unit": "µM"}]}
{"compound": "C[C@]12CC[C@H](O)C[C@@H]1CC[C@@H]1[C@@H]2CC[C@]2(C)C(=O)CC[C@@H]12", "note": "[Epiandrosterone, reference compound]", "values": [{"measurement": "cytoprotective activity against SARS-CoV-2", "setting": "[1]", "value": "did not display cytoprotective activity"}]}
{"compound": "C[C@]12CC[C@H](OCCS(=O)(=O)N3CCOCC3)CC1CCC1C2CC[C@]2(C)C(=O)CCC12", "note": "(some centres unmarked) [FFNBio41]", "values": [{"measurement": "effect on viral load assessed by plaque assay", "setting": "[2]", "value": "no effect"}, {"measurement": "EC50", "setting": "[1]", "value": 5, "unit": "µM"}, {"measurement": "toxicity, MTT assay", "setting": "[3]", "value": "not cytotoxic"}]}
{"compound": "CN1CCN(CC(=O)O[C@H]2CC[C@@]3(C)C(CCC4C3CC[C@]3(C)C(=O)CCC43)C2)CC1", "note": "(some centres unmarked) [FFNBio42]", "values": [{"measurement": "fold reduction in infectious virus (plaque assay) vs vehicle-treated control", "setting": "[2]", "value": 10, "unit": "fold"}, {"measurement": "EC50", "setting": "[1]", "value": 4.7, "unit": "µM"}, {"measurement": "toxicity, MTT assay", "setting": "[3]", "value": "not cytotoxic"}, {"measurement": "fold reduction in viral RNA levels (RT-qPCR) vs vehicle-treated control", "setting": "[4]", "value": 10, "unit": "fold"}]}
{"compound": "C[C@]12CC[C@H](OC(=O)CN3CCOCC3)CC1CCC1C2CC[C@]2(C)C(=O)CCC12", "note": "(some centres unmarked) [LNB149]", "values": [{"measurement": "half maximal effective concentration (EC50), 50% CPE inhibition", "setting": "[1]", "value": "mid micromolar range"}]}
{"compound": "C[C@]12CC[C@H](OC[C@@H](O)CN3CCOCC3)CC1CCC1C2CC[C@]2(C)C(=O)CCC12", "note": "(some centres unmarked) [LNB166]", "values": [{"measurement": "half maximal effective concentration (EC50), 50% CPE inhibition", "setting": "[1]", "value": "mid micromolar range"}]}
{"compound": "CN1CCN(C[C@H](O)CO[C@H]2CC[C@@]3(C)C(CCC4C3CC[C@]3(C)C(=O)CCC43)C2)CC1", "note": "(some centres unmarked) [LNB167]", "values": [{"measurement": "effect on viral load assessed by plaque assay", "setting": "[2]", "value": "potent inhibition of SARS-CoV-2 replication"}, {"measurement": "fold reduction in infectious virus (plaque assay) vs vehicle-treated control", "setting": "[2]", "value": 1000, "unit": "fold"}, {"measurement": "effect on SARS-CoV-2 viral load", "setting": "[5]", "value": "no effect"}, {"measurement": "cholesterol distribution, filipin III staining", "setting": "[6]", "value": "formation of puncta that were identical to those observed in U18666A-treated cells"}, {"measurement": "toxicity, MTT assay", "setting": "[7]", "value": "not toxic"}, {"measurement": "EC50", "setting": "[1]", "value": 0.9, "unit": "µM"}, {"measurement": "fold reduction in viral load (RT-qPCR, viral RNA)", "setting": "[8]", "value": "≤ 1000", "unit": "fold"}, {"measurement": "toxicity, MTT assay", "setting": "[9]", "value": "not toxic"}, {"measurement": "toxicity, MTT assay", "setting": "[3]; 10 µM and 32 µM, Vero CCL81", "value": "not cytotoxic"}, {"measurement": "bioavailability", "setting": "[10]; male, CD1, mouse, plasma, oral, 60 mg/kg p.o. (6 mg/kg I.V.)", "value": 66.3, "unit": "%"}, {"measurement": "half-life", "setting": "[10]; male, CD1, mouse, plasma, po, single dose of 60 mg/kg given orally", "value": 2.67, "unit": "h"}, {"measurement": "volume of distribution", "setting": "[10]; single dose of 60 mg/kg given orally", "value": 63.17, "unit": "L/kg"}, {"measurement": "maximum plasma concentration", "setting": "[10]; single dose of 60 mg/kg given orally, 60 mg/kg", "value": "498.69 ng/ml and 1.1 µM"}, {"measurement": "effect on levels of viral RNA (RT-qPCR)", "setting": "[11]", "value": "did not reduce levels of viral RNA"}, {"measurement": "signs of toxicity", "setting": "[12]; 60 mg/Kg once a day for 6 days", "value": "No signs of toxicity"}, {"measurement": "signs of toxicity", "setting": "[12]; 300 mg/Kg once a day for 6 days", "value": "moderate weight loss and ruffled fur"}, {"measurement": "toxicity, MTT assay", "setting": "[13]", "value": "not toxic"}, {"measurement": "toxicity, MTT assay", "setting": "[14]", "value": "not toxic"}, {"measurement": "up-regulated pathways (RNASeq), SARS-CoV-2-infected cells", "setting": "[15]", "value": "upregulation of multiple pathways involving metabolism and biosynthesis of both membrane lipids and cholesterol"}, {"measurement": "up-regulated pathways (RNASeq), non-infected cells", "setting": "[15]", "value": "upregulation of membrane lipids and cholesterol metabolic and biosynthetic pathways"}, {"measurement": "fold reduction in infectious viral progeny (plaque assay), time of addition", "setting": "[16]", "value": "up to 100 fold"}, {"measurement": "fold reduction in viral load (RT-qPCR), time of addition", "setting": "[16]", "value": "approximately 10 fold"}, {"measurement": "time of addition after infection giving maximum antiviral activity", "setting": "[16]", "value": "≤ 8", "unit": "h"}, {"measurement": "fold reduction in viral RNA levels (RT-qPCR) vs vehicle-treated control", "setting": "[4]", "value": "~100", "unit": "fold"}, {"measurement": "viral load recovered from infected mouse lungs (plaque assay or RT-qPCR)", "setting": "[17]", "value": "did not reduce the viral load"}, {"measurement": "histological analysis of lung sections", "setting": "[17]; mouse", "value": "alterations in tissue architecture that were more pronounced in the context of SARS-CoV-2 infection"}, {"measurement": "protection from disease development induced by SARS-CoV-2", "setting": "[17]; mouse", "value": "did not protect from disease development"}, {"measurement": "average weight loss", "setting": "[17]; mouse, 120 mg/kg", "value": 15, "unit": "%"}, {"measurement": "effect on SARS-CoV-2 viral load", "setting": "[18]", "value": "no effect"}, {"measurement": "virucidal activity against SARS-CoV-2", "setting": "[19]", "value": "neither LNB167 nor LNB169 were virucidal"}]}
{"compound": "C[C@]12CC[C@H](OC[C@H](O)CN3CCOCC3)CC1CCC1C2CC[C@]2(C)C(=O)CCC12", "note": "(some centres unmarked) [LNB168]", "values": [{"measurement": "half maximal effective concentration (EC50), 50% CPE inhibition", "setting": "[1]", "value": "mid micromolar range"}]}
{"compound": "CN1CCN(C[C@@H](O)CO[C@H]2CC[C@@]3(C)C(CCC4C3CC[C@]3(C)C(=O)CCC43)C2)CC1", "note": "(some centres unmarked) [LNB169]", "values": [{"measurement": "effect on viral load assessed by plaque assay", "setting": "[2]", "value": "potent inhibition of SARS-CoV-2 replication"}, {"measurement": "fold reduction in infectious virus (plaque assay) vs vehicle-treated control", "setting": "[2]", "value": 1000, "unit": "fold"}, {"measurement": "effect on SARS-CoV-2 viral load", "setting": "[5]", "value": "no effect"}, {"measurement": "toxicity, MTT assay", "setting": "[7]", "value": "not toxic"}, {"measurement": "EC50", "setting": "[1]", "value": 3.8, "unit": "µM"}, {"measurement": "fold reduction in viral load (RT-qPCR, viral RNA)", "setting": "[8]", "value": "approximately 100 fold"}, {"measurement": "toxicity, MTT assay", "setting": "[9]", "value": "not toxic"}, {"measurement": "toxicity, MTT assay", "setting": "[3]; 10 µM and 32 µM, Vero CCL81", "value": "not cytotoxic"}, {"measurement": "effect on levels of viral RNA (RT-qPCR)", "setting": "[11]", "value": "did not reduce levels of viral RNA"}, {"measurement": "toxicity, MTT assay", "setting": "[13]", "value": "not toxic"}, {"measurement": "toxicity, MTT assay", "setting": "[14]", "value": "not toxic"}, {"measurement": "fold reduction in infectious viral progeny (plaque assay), time of addition", "setting": "[16]", "value": "up to 100 fold"}, {"measurement": "fold reduction in viral load (RT-qPCR), time of addition", "setting": "[16]", "value": "approximately 10 fold"}, {"measurement": "time of addition after infection giving maximum antiviral activity", "setting": "[16]", "value": "≤ 8", "unit": "h"}, {"measurement": "fold reduction in viral RNA levels (RT-qPCR) vs vehicle-treated control", "setting": "[4]", "value": "~100", "unit": "fold"}, {"measurement": "effect on SARS-CoV-2 viral load", "setting": "[18]", "value": "no effect"}, {"measurement": "virucidal activity against SARS-CoV-2", "setting": "[19]", "value": "neither LNB167 nor LNB169 were virucidal"}]}
{"compound": "CN1CCN(CCC(=O)O[C@H]2CC[C@@]3(C)C(CCC4C3CC[C@]3(C)C(=O)CCC43)C2)CC1", "note": "(some centres unmarked) [LNB171]", "values": [{"measurement": "effect on viral load assessed by plaque assay", "setting": "[2]", "value": "no effect"}, {"measurement": "half maximal effective concentration (EC50), 50% CPE inhibition", "setting": "[1]", "value": "mid micromolar range"}, {"measurement": "toxicity, MTT assay", "setting": "[3]", "value": "not cytotoxic"}, {"measurement": "effect on viral load assessed by RT-qPCR", "setting": "[4]", "value": "no effect"}]}
{"compound": "CCN(CC)CCO[C@H]1CC[C@@]2(C)C(=CC[C@@H]3[C@@H]2CC[C@]2(C)C(=O)CC[C@@H]32)C1.Cl", "note": "[U18666A, reference compound]", "values": [{"measurement": "cholesterol distribution, filipin III staining", "setting": "[6]", "value": "formation of puncta inside cells"}]}
